Data: patent publication US11400101B2, “Treatment of allergic rhinitis using a combination of mometasone and olopatadine” (GLENMARK SPECIALTY S.A., priority 2013, dated 2022)

System: seasonal allergic rhinitis (SAR)
Assay: Phase III clinical study in SAR, fall and mountain cedar season, Example 6
Settings: human, in vivo
Source text: A total of 1,176 randomized subjects (˜294 subjects per treatment arm) were enrolled in the study.
Subjects were randomized to treatment in a 1:1:1:1 ratio to the following four treatment arms, at multiple study sites.
This study consisted of four visits to the study site. After the initial screening visit (Visit 1), subjects who met all study selection criteria were required to undergo a single-blind placebo run-in period for 7-10 days. Following the completion of the run-in period, eligible subjects meeting the randomization criteria were enrolled and randomized to one of the four treatment arms. Subjects were dispensed medication as per the randomization list. Randomized subjects were required to undergo a 2 week (14 days) treatment period as per the protocol to assess the efficacy and safety of the assigned treatment. Subjects were instructed to record the symptom scores in a symptom assessment diary.
• Change from baseline in average AM and PM subject-reported 12-hour rTNSS (reflective TNSS) over the 14-day treatment period. […] The non-nasal symptoms are assessed in a similar manner to the ocular symptoms above. […]

## Mometasone Furoate Monohydrate and Olopatadine Hydrochloride Nasal Spray (25 mcg+600 mcg) [TP-1]
  Urinary tract infection reported as adverse event: 1%
